Laboratory results from ChEMBL document CHEMBL5321210, “N-adamantyl-anthranil amide derivatives: New selective ligands for the cannabinoid receptor subtype 2 (CB2R)” (Eur J Med Chem, 2023).
Active and inactive are the calls of the source. The rule behind the calls is not given here.

Experiments:
Cannabinoid receptor 1 = Cannabinoid receptor 1 (Homo sapiens, UniProt P21554); experiment: Displacement of [3H]-CP55940 from human CB1 receptor expressed in HEK293 cell membrane at 1 uM incubated for 60 mins by radioligand competition binding assay relative to control; assay type: cell membranes
Cannabinoid receptor 2 [1] = target: T1, Cannabinoid receptor 2 (Homo sapiens, UniProt P34972); experiment: Displacement of [3H]-CP55940 from human CB2 receptor expressed in HEK293 cell membrane at 1 uM incubated for 90 mins by radioligand competition binding assay relative to control; assay type: cell membranes
Cannabinoid receptor 2 [2] = target: T1, Cannabinoid receptor 2; experiment: Agonist activity at human CB2 receptor expressed in CHO-K1 cells assessed as inhibition of NKH-477 induced cAMP production incubated for 30 mins by luminescence based analysis; assay type: functional, cell-based
Cannabinoid receptor 2 [3] = target: T1, Cannabinoid receptor 2; experiment: Displacement of [3H]-CP55940 from human CB2 receptor expressed in HEK293 cell membrane assessed as inhibition constant incubated for 90 mins by radioligand competition binding assay; assay type: cell membranes
THP-1 [4] = experiment: Antiinflammatory activity in PMA-differentiated human THP-1 macrophages assessed as increase in IL-10 production at 1 to 10 uM incubated for 24 hrs by ELISA coupled qRT-PCR analysis; assay type: functional, cell-based; details: dose 1-10 µM
THP-1 [5] = experiment: Antiinflammatory activity against LPS-activated human THP-1 monocytes assessed as increase in IL-4 production at 1 to 10 uM incubated for 24 hrs by ELISA coupled qRT-PCR analysis; assay type: functional, cell-based; details: dose 1-10 µM
THP-1 [6] = experiment: Antiinflammatory activity in PMA-differentiated human THP-1 macrophages assessed as decrease in TNF-alpha production at 1 to 10 uM incubated for 24 hrs by ELISA coupled qRT-PCR analysis; assay type: functional, cell-based; details: dose 1-10 µM
THP-1 [7] = experiment: Antiinflammatory activity against LPS-activated PMA-differentiated human THP-1 macrophages assessed as increase in IL-10 production at 10 uM incubated for 24 hrs by ELISA coupled qRT-PCR analysis; assay type: functional, cell-based
THP-1 [8] = experiment: Antiinflammatory activity in human THP-1 monocytes assessed as increase in IL-4 production at 1 to 10 uM incubated for 24 hrs by ELISA coupled qRT-PCR analysis; assay type: functional, cell-based; details: dose 1-10 µM
THP-1 [9] = experiment: Antiinflammatory activity against LPS-activated PMA-differentiated human THP-1 macrophages assessed as decrease in IFN-gamma production at 1 to 10 uM incubated for 24 hrs by ELISA coupled qRT-PCR analysis; assay type: functional, cell-based; details: dose 1-10 µM
THP-1 [10] = experiment: Antiinflammatory activity in human THP-1 monocytes assessed as decrease in TNF-alpha production at 1 to 10 uM incubated for 24 hrs by ELISA coupled qRT-PCR analysis; assay type: functional, cell-based; details: dose 1-10 µM
THP-1 [11] = experiment: Antiinflammatory activity in PMA-differentiated human THP-1 macrophages assessed as decrease in IL-1beta production at 1 to 10 uM incubated for 24 hrs by ELISA coupled qRT-PCR analysis; assay type: functional, cell-based; details: dose 1-10 µM
THP-1 [12] = experiment: Antiinflammatory activity against LPS-activated PMA-differentiated human THP-1 macrophages assessed as decrease in IL-1beta production at 1 to 10 uM incubated for 24 hrs by ELISA coupled qRT-PCR analysis; assay type: functional, cell-based; details: dose 1-10 µM
THP-1 [13] = experiment: Antiinflammatory activity in human THP-1 monocytes assessed as decrease in IL-6 production at 1 to 10 uM incubated for 24 hrs by ELISA coupled qRT-PCR analysis; assay type: functional, cell-based; details: dose 1-10 µM
THP-1 [14] = experiment: Antiinflammatory activity in human THP-1 monocytes assessed as increase in IL-10 production at 1 to 10 uM incubated for 24 hrs by ELISA coupled qRT-PCR analysis; assay type: functional, cell-based; details: dose 1-10 µM
THP-1 [15] = experiment: Antiinflammatory activity in human THP-1 monocytes assessed as decrease in IFN-gamma production at 1 to 10 uM incubated for 24 hrs by ELISA coupled qRT-PCR analysis; assay type: functional, cell-based; details: dose 1-10 µM
THP-1 [16] = experiment: Antiinflammatory activity against LPS-activated human THP-1 monocytes assessed as decrease in IL-6 production at 1 to 10 uM incubated for 24 hrs by ELISA coupled qRT-PCR analysis; assay type: functional, cell-based; details: dose 1-10 µM
THP-1 [17] = experiment: Antiinflammatory activity in PMA-differentiated human THP-1 macrophages assessed as increase in IL-4 production at 1 to 10 uM incubated for 24 hrs by ELISA coupled qRT-PCR analysis; assay type: functional, cell-based; details: dose 1-10 µM
THP-1 [18] = experiment: Antiinflammatory activity against LPS-activated human THP-1 monocytes assessed as decrease in IFN-gamma production at 1 to 10 uM incubated for 24 hrs by ELISA coupled qRT-PCR analysis; assay type: functional, cell-based; details: dose 1-10 µM
THP-1 [19] = experiment: Antiinflammatory activity against LPS-activated human THP-1 monocytes assessed as decrease in TNF-alpha production at 1 to 10 uM incubated for 24 hrs by ELISA coupled qRT-PCR analysis; assay type: functional, cell-based; details: dose 1-10 µM
THP-1 [20] = experiment: Antiinflammatory activity against LPS-activated PMA-differentiated human THP-1 macrophages assessed as decrease in TNF-alpha production at 1 to 10 uM incubated for 24 hrs by ELISA coupled qRT-PCR analysis; assay type: functional, cell-based; details: dose 1-10 µM
THP-1 [21] = experiment: Antiinflammatory activity in PMA-differentiated human THP-1 macrophages assessed as decrease in IL-6 production at 1 to 10 uM incubated for 24 hrs by ELISA coupled qRT-PCR analysis; assay type: functional, cell-based; details: dose 1-10 µM
THP-1 [22] = experiment: Antiinflammatory activity against LPS-activated PMA-differentiated human THP-1 macrophages assessed as decrease in IL-6 production at 1 to 10 uM incubated for 24 hrs by ELISA coupled qRT-PCR analysis; assay type: functional, cell-based; details: dose 1-10 µM
THP-1 [23] = experiment: Antiinflammatory activity against LPS-activated PMA-differentiated human THP-1 macrophages assessed as increase in IL-4 production at 10 uM incubated for 24 hrs by ELISA coupled qRT-PCR analysis; assay type: functional, cell-based
THP-1 [24] = experiment: Antiinflammatory activity against LPS-activated human THP-1 monocytes assessed as increase in IL-10 production at 1 to 10 uM incubated for 24 hrs by ELISA coupled qRT-PCR analysis; assay type: functional, cell-based; details: dose 1-10 µM
Cannabinoid receptor 2 [25] = target: T1, Cannabinoid receptor 2; experiment: Antagonist activity at human CB2 receptor expressed in CHO-K1 cells assessed as reversal of JWH-133 mediated cAMP reduction preincubated with compound for 15 mins followed by JWH-133 addition and measured after 30 mins in the presence of NKH-477 by luminescence based analysis; assay type: functional, cell-based; details: filed as antagonist, time 45.0 min
THP-1 [26] = experiment: Antiinflammatory activity in human THP-1 monocytes assessed as decrease in IL-1beta production at 1 to 10 uM incubated for 24 hrs by ELISA coupled qRT-PCR analysis; assay type: functional, cell-based; details: dose 1-10 µM
THP-1 [27] = experiment: Antiinflammatory activity in PMA-differentiated human THP-1 macrophages assessed as decrease in IFN-gamma production at 1 to 10 uM incubated for 24 hrs by ELISA coupled qRT-PCR analysis; assay type: functional, cell-based; details: dose 1-10 µM
THP-1 [28] = experiment: Antiinflammatory activity against LPS-activated human THP-1 monocytes assessed as decrease in IL-1beta production at 1 to 10 uM incubated for 24 hrs by ELISA coupled qRT-PCR analysis; assay type: functional, cell-based; details: dose 1-10 µM
Cannabinoid receptor 2 [29] = target: T1, Cannabinoid receptor 2; experiment: Agonist activity at human CB2 receptor expressed in CHO-K1 cells assessed as inhibition of NKH-477 induced cAMP production by measuring maximal efficacy incubated for 30 mins by luminescence based analysis relative to control; assay type: functional, cell-based; details: filed as agonist

T1 sequence (P34972 whole entry): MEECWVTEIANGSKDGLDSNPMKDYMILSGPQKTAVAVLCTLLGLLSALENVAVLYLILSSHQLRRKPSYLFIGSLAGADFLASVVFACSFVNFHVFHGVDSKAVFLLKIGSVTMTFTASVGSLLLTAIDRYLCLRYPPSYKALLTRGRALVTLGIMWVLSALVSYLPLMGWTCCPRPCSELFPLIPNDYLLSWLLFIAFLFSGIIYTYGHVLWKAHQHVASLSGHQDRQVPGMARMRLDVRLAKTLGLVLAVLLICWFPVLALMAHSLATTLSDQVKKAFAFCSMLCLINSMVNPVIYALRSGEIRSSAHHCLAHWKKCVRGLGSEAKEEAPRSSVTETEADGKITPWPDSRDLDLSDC
Sequence of Cannabinoid receptor 1 (P21554 whole entry): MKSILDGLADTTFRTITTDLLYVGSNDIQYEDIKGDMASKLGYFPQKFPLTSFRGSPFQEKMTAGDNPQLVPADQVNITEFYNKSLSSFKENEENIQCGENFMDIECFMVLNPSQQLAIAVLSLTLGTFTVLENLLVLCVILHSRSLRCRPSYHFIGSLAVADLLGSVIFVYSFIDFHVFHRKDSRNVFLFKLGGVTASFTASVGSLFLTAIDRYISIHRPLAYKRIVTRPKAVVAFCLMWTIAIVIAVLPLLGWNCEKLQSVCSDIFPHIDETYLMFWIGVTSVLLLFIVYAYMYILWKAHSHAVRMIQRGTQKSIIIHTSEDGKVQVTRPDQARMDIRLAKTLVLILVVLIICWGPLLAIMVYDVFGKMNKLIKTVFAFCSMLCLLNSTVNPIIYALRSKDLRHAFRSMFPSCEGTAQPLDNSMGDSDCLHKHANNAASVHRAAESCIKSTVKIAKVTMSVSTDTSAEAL

For `CCCCCCCNc1ccc(Br)cc1C(=O)NC12CC3CC(CC(C3)C1)C2`, the Activity (Cannabinoid receptor 1) was 8% and the Activity (Cannabinoid receptor 2 [1]) was 16%.
`CCCCCNc1ccc(-c2cccc(C)c2)cc1C(=O)NC12CC3CC(CC(C3)C1)C2` showed an Activity (Cannabinoid receptor 1) of 14% and an Activity (Cannabinoid receptor 2 [1]) of 37%.
`CCCCCNc1ccc(-c2ccccc2)cc1C(=O)NC1CCCCC1` was tested, and the Activity (Cannabinoid receptor 1) was 3% and the Activity (Cannabinoid receptor 2 [1]) was 21%.
Compound `CCCC(C)(C)c1ccc2c(c1)OC(C)(C)[C@@H]1CC=C(C)C[C@@H]21` has an EC50 (Cannabinoid receptor 2 [2]) of 169 µM.
With `CCCCCCNc1ccc(-c2ccccc2)cc1C(=O)NC12CC3CC(CC(C3)C1)C2` the Activity (Cannabinoid receptor 1) was 35% and the Ki (Cannabinoid receptor 2 [3]) was 209 nM.
`CCCCCCNc1ccc(-c2cccnc2)cc1C(=O)NC12CC3CC(CC(C3)C1)C2` gave an Activity (Cannabinoid receptor 1) of 9% and a Ki (Cannabinoid receptor 2 [3]) of 6500 nM.
In the case of `CCCCCNc1ccc(Br)cc1C(=O)NC12CC3CC(CC(C3)C1)C2`, the Activity (Cannabinoid receptor 1) is reported as 5% and the Ki (Cannabinoid receptor 2 [3]) is reported as 456 nM.
In the case of `CCCCCCNc1ccc(Br)cc1C(=O)NC12CC3CC(CC(C3)C1)C2`, the Activity (Cannabinoid receptor 1) is reported as 17% and the Activity (Cannabinoid receptor 2 [1]) is reported as 26%.
For `CCCCCNc1ccc(-c2ccccc2)cc1C(=O)NC12CC3CC(CC(C3)C1)C2`, the Activity (THP-1 [4]) was “inactive”, the Activity (THP-1 [5]) was “inactive” and the Activity (THP-1 [6]) was “inactive”. For the same compound, the Activity (THP-1 [7]) was “inactive”, the Activity (THP-1 [8]) was “inactive” and the Activity (THP-1 [9]) was “inactive”. For the same compound, the Activity (Cannabinoid receptor 1) was 5%, the Activity (THP-1 [10]) was “inactive” and the Activity (THP-1 [11]) was “inactive”. For the same compound, the Activity (THP-1 [12]) was “inactive”, the Activity (THP-1 [13]) was “inactive” and the Activity (THP-1 [14]) was “inactive”. The Activity (THP-1 [15]) was “inactive”, the Activity (THP-1 [16]) was “inactive” and the Activity (THP-1 [17]) was “inactive”. For the same compound, the Activity (THP-1 [18]) was “inactive”, the Activity (THP-1 [19]) was “inactive” and the Ki (Cannabinoid receptor 2 [3]) was 47.8 nM. The Activity (THP-1 [20]) was “inactive”, the Activity (THP-1 [21]) was “inactive” and the Activity (THP-1 [22]) was “inactive”. For the same compound, the Activity (THP-1 [23]) was “inactive”, the Activity (THP-1 [24]) was “inactive” and the Activity (Cannabinoid receptor 2 [25]) was “Active”. The Activity (THP-1 [26]) was “inactive”, the Activity (THP-1 [27]) was “inactive” and the Activity (THP-1 [28]) was “inactive”.
In the case of `CCCCCNc1ccc(-c2cccc(F)c2)cc1C(=O)NC12CC3CC(CC(C3)C1)C2`, the Activity (Cannabinoid receptor 1; filed as agonist) is reported as 42%, the Ki (Cannabinoid receptor 2 [3]) is reported as 71 nM and the Emax (Cannabinoid receptor 2 [29]) is reported as 86.6%. The EC50 (Cannabinoid receptor 2 [2]) was 5.25 µM.
`CCCCCNc1ccc(-c2cccs2)cc1C(=O)NC12CC3CC(CC(C3)C1)C2` showed an Activity (Cannabinoid receptor 1) of 15% and a Ki (Cannabinoid receptor 2 [3]) of 2600 nM.
Work on `CCCCCNc1ccc(-c2ccc(OC)cc2)cc1C(=O)NC12CC3CC(CC(C3)C1)C2` yielded an Activity (Cannabinoid receptor 1) of 23% and a Ki (Cannabinoid receptor 2 [3]) of 148 nM.
`CCCCCNc1ccc(-c2ccc(C(N)=O)cc2)cc1C(=O)NC12CC3CC(CC(C3)C1)C2` was tested, and the Activity (Cannabinoid receptor 1) was 14% and the Activity (Cannabinoid receptor 2 [1]) was 19%.
In the case of `CCCCCNc1ccc(-c2ccc(C)cc2)cc1C(=O)NC12CC3CC(CC(C3)C1)C2`, the Activity (Cannabinoid receptor 1) is reported as 16% and the Ki (Cannabinoid receptor 2 [3]) is reported as 129 nM.
